Data taken from patent US20090176817A1, “Method of Treatment of Diarrhea-Predominant Irritable Bowel Syndrome in a Subject” (priority 2005, published 2009).
Like-named read-outs stand apart in the source and are kept apart here.

Columns and labels:
[1] = tested on: diarrhea-predominant IBS subjects; test: Study S241.3.006: IBS-QOL; assay type: in vivo, human; settings: for Percentage of Subjects Who Worsened from Baseline: IBS-QOL Overall Score: S241.3.006, 2 mg TID, observed value
From the text: (§1) Studies S24 1.3.OO6, S24 1.3.0 1 1, and S24 1.3.009 used the following efficacy measurements: • The subjects answered the following three questions with “yes” or “no” using a phone diary at the end of each week: • a) During the last week, did you experience adequate relief of your IBS symptoms, such as abdominal pain, abdominal discomfort, abnormal bowel habits? • b) During the last week, did you experience adequate relief of your abdominal pain and/or discomfort? • c) During the last week, did you experience adequate relief of your abnormal bowel habits? • The subjects rated the following symptoms using the phone diary at the end of each day: • abdominal pain/discomfort (five-point scale); • stool consistency (seven-point Bristol Stool Scale); • stool frequency (number of bowel movements each day); • urgency (five-point scale); • straining (yes or no); • feeling of incomplete defecation (yes or no); • bloating or feeling of abdominal distension (five-point scale). • In Studies S241 A006 and S241.3.009, subjects completed the IBS-QOL Survey at Baseline (Day 1) and at the end of treatment. In Study S24 1.3.0 1 1, subjects completed the IBS-QOL Survey at Baseline (Day 1), at the end of the three-month treatment period, and at the end of rerandomized treatment.
(§2) Other secondary efficacy parameters for all three studies included: • Responder rate for the weekly diary questions on adequate relief at each month, where a responder for a month (monthly responder) was defined as a subject who answered the weekly question with “yes” at least twice for that month. The responder rate was the percentage of responders within a treatment group. The all-month responder rate for the weekly diary questions on adequate relief was also evaluated, where an all-month responder was defined as a subject who answered the weekly question with “yes” at least twice for each month. The all-month responder rate was the percentage of all-month responders within a treatment group; • Adequate relief rate for the weekly diary questions was calculated for each subject as the number of weekly assessments with adequate relief (“yes”) divided by the total number of weekly assessments; • Percentage of subjects with adequate relief for the weekly diary questions at each week; • Daily diary questions regarding abdominal pain/discomfort (five-point scale), stool consistency (seven-point scale), stool frequency (number of bowel movements each day), straining (yes or no), urgency (five-point scale), feeling of incomplete evacuation (yes or no), and bloating or feeling of abdominal distention (five-point scale); • QOL data assessed by the IBS-QOL questionnaire; and • Question to determine the interruption of activities.

[2] = tested on: serum proteins; test: in vitro; settings: both, human, plasma, Plasma protein bound
Description: The ex vivo protein binding of cilansetron and its 4-hydroxy metabolites has been measured in serum samples collected in a multiple-dose study in healthy and renally impaired male and female subjects, aged 33-74 years. […] Healthy subjects were matched to renally-impaired subjects with respect to age, weight, gender, and smoking status. All subjects received oral cilansetron 2 mg TID on Days 1 to 5, and a single dose on the morning of Day 6.

[3] = tested on: diarrhea-predominant IBS subjects; assay type: in vivo, human; set-up: key to Daily stool consistency score, mean change from Baseline at end of treatment / Mean stool consistency score at end of treatment / Stool consistency, mean change from rerandomization Baseline: stool consistency on a seven-point daily diary scale
From the text: as §1, §2

[4] = tested on: CYP2C19; settings: hepatocytes
[5] = both, human, in vivo
Description: Two randomized, double-blind, placebo controlled, balanced incomplete block design, crossover studies evaluated the single- and multiple-dose pharmacokinetics of oral cilansetron over a 8 mg to 32 mg dose range. In both studies, subjects were randomized to receive two of three treatments during 2 treatment periods. In one study (12 male and 13 female subjects, aged 23 to 36 years), subjects received 8 mg cilansetron, 16 mg cilansetron, or placebo, while in another study (12 males and 13 females, aged 23 to 41 years), subjects received 16 mg cilansetron, 32 mg cilansetron, or placebo. During each treatment period, subjects received a single dose of their assigned treatment on the first day, followed by a 3-day washout, after which they received the same treatment TID for 5 days.
There was a 5-6 day washout period between treatment periods. Doses on the mornings of pharmacokinetic days were administered under fasted conditions. Serial blood sampling and urine collection was performed up to 12 hours following morning dosing on the first day (single dose) and on the last multiple dosing day of each treatment period, and cilansetron pharmacokinetic parameters were evaluated.
In two randomized, double-blind, placebo controlled, balanced incomplete block design, crossover studies evaluating the single- and multiple-dose pharmacokinetics of oral cilansetron over a 8 mg to 32 mg dose range, subjects were randomized to receive two of three treatments during 2 treatment periods. In Study S.241.1.101; (12 male and 13 female subjects, aged 23 to 36 years), subjects received 8 mg cilansetron, 16 mg cilansetron, or placebo, while in Study S.24 1.1.102; (12 males and 13 females, aged 23 to 41 years), subjects received 16 mg cilansetron, 32 mg cilansetron, or placebo. During each treatment period, subjects received a single dose of their assigned treatment on the first day, followed by a 3-day washout, after which they received the same treatment TID for 5 days. There was a 5-6 day washout period between treatment periods. Doses on the mornings of pharmacokinetic days were administered under fasted conditions. Serial blood sampling and urine collection was performed up to 12 hours following morning dosing on the first day (single dose) and on the last multiple dosing day of each treatment period, and cilansetron pharmacokinetic parameters were evaluated.

[6] = tested on: diarrhea-predominant IBS subjects; test: Study S241.3.006: interruption of activities assessment; assay type: in vivo, human; settings: for Percentage of Subjects Who Worsened from Baseline: Interruption of Activities: S241.3.006, 2 mg TID, observed value
From the text: as §1, §2

With `Cc1nccn1C[C@H]1CCc2c(c3cccc4c3n2CCC4)C1=O` [Cilansetron, (R)-(−)-4,5,6,8,9,10-hexahydro-10-[(2-methyl-1H-imidazol-1-yl)methyl]-11H-pyrido-[3,2,1-jk]-carbazol-11-one] the “Subjects worsened from Baseline, IBS-QOL Overall Score” value ([1]; Month 3) was 5%, the “Percentage of Subjects Who Worsened from Baseline: IBS-QOL Overall Score” value ([1]; Endpoint (last post-Baseline overall score)) was 6% and the “Percentage of Subjects Who Worsened from Baseline: IBS-QOL Overall Score” value ([1]; Month 3) was 5%. The “IBS-QOL body image, treatment difference” value ([1]; vs placebo) was 7.43, the “IBS-QOL dysphoria, treatment difference” value ([1]; vs placebo) was 7.34 and the “IBS-QOL food avoidance, treatment difference” value ([1]; vs placebo) was 8.92. For the same compound, the “IBS-QOL health worry, treatment difference” value ([1]; vs placebo) was 3.21, the “IBS-QOL interference with activity, treatment difference” value ([1]; vs placebo) was 9.73 and the “IBS-QOL overall score, treatment difference in mean change from Baseline at Endpoint” value ([1]; vs placebo) was 7.37. For the same compound, the “IBS-QOL relationships, treatment difference” value ([1]; vs placebo) was 5.19, the “IBS-QOL sexual, treatment difference” value ([1]; vs placebo) was 5.64 and the “IBS-QOL social reaction, treatment difference” value ([1]; vs placebo) was 6.19. For the same compound, the fraction unbound [2] was roughly 0.04, the “Mean number of stools per day at end of treatment” value ([3]; 2 mg TID) was 2.41 stools per day and the “Abdominal pain/discomfort, mean change from rerandomization Baseline” value (“Abdominal pain/discomfort, mean change” for short) ([3]; C/C) was −0.09. For the same compound, the “Bloating, mean change from rerandomization Baseline” value (shortened to “Bloating, mean change”) ([3]; C/C) was −0.05, the “Incomplete evacuation, mean change from Rerandomization Baseline” value ([3]; C/C) was 0.01 and the “Stool consistency, mean change from rerandomization Baseline” value (shortened to “Stool consistency, mean change”) ([3]; C/C) was −0.09. For the same compound, the “Stools per day, mean change from rerandomization Baseline” value ([3]; C/C) was −0.02, the “Urgency, mean change from rerandomization Baseline” value (“Urgency, mean change” below) ([3]; C/C) was −0.05 and the “Abdominal pain/discomfort, mean change” value ([3]; C/P) was 0.16. For the same compound, the “Bloating, mean change” value ([3]; C/P) was 0.16, the “Incomplete evacuation, mean change from Rerandomization Baseline” value ([3]; C/P) was 0.05 and the “Stool consistency, mean change” value ([3]; C/P) was 0.55. The “Stools per day, mean change from rerandomization Baseline” value ([3]; C/P) was 0.22, the “Urgency, mean change” value ([3]; C/P) was 0.25 and the “Abdominal pain/discomfort, mean change” value ([3]; P/C) was −0.08. For the same compound, the “Bloating, mean change” value ([3]; P/C) was −0.03, the “Incomplete evacuation, mean change from Rerandomization Baseline” value ([3]; P/C) was −0.02 and the “Stool consistency, mean change” value ([3]; P/C) was −0.84. For the same compound, the “Stools per day, mean change from rerandomization Baseline” value ([3]; P/C) was −0.31, the “Urgency, mean change” value ([3]; P/C) was −0.27 and the “Median rate of urgency-free days” value ([3]; end of treatment) was 0.25. The “Median rate of pain-free days” value ([3]; end of treatment (last two weeks)) was 0.15, the “Bloating or abdominal distention score, mean change from Baseline at end of treatment” value ([3]; in vivo) was −0.43 and the “Daily abdominal pain/discomfort score, mean change from Baseline at end of treatment” value ([3]; in vivo) was −0.69. The “Daily stool consistency score, mean change from Baseline at end of treatment” value ([3]; in vivo) was −1.02, the “Daily urgency score, mean change from Baseline at end of treatment” value ([3]; in vivo) was −0.78 and the “Feeling of incomplete evacuation, mean change from Baseline at end of treatment” value ([3]; in vivo) was −0.20. For the same compound, the “Mean stool consistency score at end of treatment” value ([3]; in vivo) was 4.28, the “Mean straining, mean change from Baseline at end of treatment” value ([3]; in vivo) was 0.05 and the “Stools per day, mean change from Baseline at end of treatment” value ([3]; in vivo) was −0.91. The “Median rate of pain-free days” value ([3]; three-month period) was 0.22, the “Median rate of urgency-free days” value ([3]; three-month period) was 0.31 and the “Increase of CYP2C19” value [4] was “about half of that caused by phenobarbital”. For the same compound, the “Dose excreted unchanged in urine” value [5] was “less than 1%”, the “Intrasubject % CV” value [5] was 23-51% and the “Mean AUC(0-τ) (multiple dose) to AUC(0-inf) (single dose) ratios” value [5] was 81-94%. For the same compound, the “AUC Ratio (90% CI)” value ([5]; 8 mg) was 84 (46, 154) %, the “Cmax Ratio (90% CI)” value ([5]; 8 mg) was 82 (42, 160) % and the DN-AUC ([5]; 8 mg) was 14.0 (49) ng · h/mL. For the same compound, the “AUC Ratio (90% CI)” value ([5]; 16 mg) was 58 (32, 103) %, the “Cmax Ratio (90% CI)” value ([5]; 16 mg) was 54 (29, 103) % and the “AUC Ratio (90% CI)” value ([5]; po, 8 mg) was 81 (46, 145) %. The “Cmax Ratio (90% CI)” value ([5]; po, 8 mg) was 77 (46, 128) %, the “AUC Ratio (90% CI)” value ([5]; po, 16 mg) was 82 (47, 142) % and the “Cmax Ratio (90% CI)” value ([5]; po, 16 mg) was 79 (49, 130) %. The “Subjects “not at all or rarely” bothered by IBS symptoms” value ([6]; Endpoint) was 42%, the “Subjects worsened from Baseline, interruption of activities” value ([6]; Month 1) was 8% and the “Percentage of Subjects Who Worsened from Baseline: Interruption of Activities” value (“Percentage … of Activities” below) ([6]; Month 1) was 8%. For the same compound, the “Percentage … of Activities” value ([6]; Month 2) was 5% and the “Percentage … of Activities” value ([6]; Month 3) was 4%.
